Article PMC9649909, “Wnt-pathway inhibitors with selective activity against triple-negative breast cancer: From thienopyrimidine to quinazoline inhibitors” (Frontiers in Pharmacology, 2022)
Read-outs that look alike come from different tables or passages of the source. Each block holds one compound with its values, some of them ahead of it.

Assays:
[1] = system: β-catenin-dependent Wnt-pathway; experiment: TopFlash luciferase reporter assay, CHIR99021-stimulated, HCC1395; format: cell-based; settings: for Emax / IC50: Homo sapiens, HCC1395, HCC1395, stimulation with CHIR99021 (GSK3β inhibitor); for Emax: read-out: HCC1395 TopFlash Efficacy; for IC50: read-out: HCC1395 TopFlash IC50
Source text: Both stimulations abolish formation of the destruction complex, a multiprotein complex consisting of Axin, adenomatous polyposis coli (APC), glycogen synthase kinase three beta (GSK3β), and casein kinase one alpha (CK1α). Upon inactivation of the complex, β-catenin accumulates in the cytoplasm and translocates into the nucleus where it interacts with transcription factors. These downstream events are quantified by a Luciferase transcription-based readout assay (TopFlash assay).

[2] = system: BT-20 TNBC cell line; experiment: MTT survival assay BT-20; format: cell-based; settings: Homo sapiens, BT-20; Table S2; read-out: MTT BT-20 IC50
Protocol: (§1) Indicated TNBC cell lines were detached and resuspended at 120,000 cells/ml and added into each well of a transparent 384-well plate in the final volume of 20 µl/well. The cells were maintained in DMEM containing 10% FBS at 37°C, 5% CO2 overnight. Next day, the medium in each well was replaced by 40 μl of the fresh one containing the indicated concentrations of compounds. In case of drug combination experiments, each compound dilution was delivered in corresponding well in 20 μl of medium. […] After incubation for 3–4 days, depending on the cell line, the medium in each well was replaced by 25 μl of 0.5 mg/ml Thiazolyl blue solution in 1xPBS following by incubation for 3 h at 37°C. Then the solution was removed and 25 μl DMSO was added into each well. Absorbance at 510 nm was measured in a Tecan Infinite M200 PRO plate reader.

[3] = in vitro; settings: human, HCC1395 Cytotoxicity IC50
Protocol: (§2) The simplicity of the scaffold combined with synthetic accessibility allows building a library of compounds and performing structure activity relationship (SAR) studies of the three main parts of the molecule: the top part, the linker and the core (Figure 2).
(§3) The synthesized compounds were used to explore SAR of three defined areas of investigation (Figure 2). All compounds were tested in the HCC1395 TNBC cell line using the GSK3β inhibitor to induce β-catenin signaling since 4a acted downstream of GSK3β (Figure 2). Both inhibition of β-catenin signaling measured by the TopFlash reporter and cytotoxicity measured by the Renilla reporter were assessed.
(§4) The Wnt3a or CHIR99021-stimulated luciferase activity in HCC1395 TNBC cell line stably transfected with the TopFlash reporter was analyzed essentially as described for the BT-20 TNBC cell line ([Shaw et al., 2019b]; [Koval et al., 2021]). Reporter cells were seeded at 10,000 cells/well in a white opaque 384-well plate in the final volume of 20 μl of DMEM medium supplemented with 10% FCS. The cells were maintained incubated at 37°C, 5% CO2 overnight for attachment. Subsequently, they were transfected by a plasmid encoding constitutively expressed Renilla luciferase under the CMV promoter overall as described in the manufacturer’s protocol using 12 μg/ml of DNA and 40 μl/ml XtremeGENE nine reagent. The next day, the medium in each well was replaced with a 10 μl of fresh medium containing compound of interest, and, after 1 h of preincubation with the compounds, additional 10 μl of medium supplemented with Wnt3a [purified as described ([Willert et al., 2003]; [Koval and Katanaev, 2011])] or CHIR99021 were added creating respective final concentrations of 2.5 μg/ml or 5 μM of each. In case of other signal transduction reporters, no additional stimulation was performed. Compound dilutions were prepared by serial dilution in DMSO and diluted with the amount of medium necessary to obtain their final concentrations indicated on the figures and tables and maintain concentration of DMSO of 0.5% in all assay points. After overnight incubation, the supernatant in each well was removed, and the luciferase activity was measured as described ([Dyer et al., 2000]; [Huber et al., 2021]; [Pellissier et al., 2021]). The culture medium was completely removed from all wells of the plate. Finally, the luciferase activity of the firefly and Renilla luciferases was detected sequentially in individual wells of a 384-well plate through injection of corresponding measurement solutions and immediate reading (400 ms integration time) in Infinite M Plex multifunctional plate reader with injection module.

[4] = system: HCC1395 cells; experiment: in vitro; settings: for HCC1395 Cytotoxicity Efficacy: human
Protocol: as §2, §3, §4

[5] = system: HCC1806 TNBC cell line; experiment: MTT survival assay HCC1806; format: cell-based; settings: for IC50: Homo sapiens, HCC1806
Protocol: as §1

[6] = system: MDA-MB-468 TNBC cell line; experiment: MTT survival assay MDA-MB-468; format: cell-based; settings: Homo sapiens, MDA-MB-468; Table S2
Protocol: as §1

[7] = system: non-cancerous breast epithelial cell line MCF10a; experiment: MTT survival assay MCF10a; format: cell-based; settings: Homo sapiens, MCF-10A
Protocol: as §1

[8] = system: TNBC cell proliferation; experiment: Loewe synergism with docetaxel in anti-proliferative assay (COMBENEFIT); format: cell-based; settings: Loewe model
Source text: The Wnt-pathway is implicated in chemoresistance to conventional chemotherapies and drives a poor chemotherapy response in a broad range of tumors ([O’Reilly et al., 2015]; [Martin-Orozco et al., 2019]; [Zhong and Virshup, 2020]). To assess how combination with our compounds affects the anti-proliferative capacity of docetaxel—one of the first-line treatments for TNBC ([Mandapati and Lukong, 2022]), we performed the Loewe synergism assessment over a complete dose-response range of both compounds followed by analysis in the COMBENEFIT software in Matlab (Figure 7 and Supplementary Figure S1) ([Di Veroli et al., 2016]).
as §1
The data was visualized analyzed in either GraphPad Prism nine using indicated statistical analysis or in R using gplots package ([Warnes et al., 2009]). Dataset from CCLE ([Barretina et al., 2012]) were used in the study and pathway enrichment analysis was performed by DAVID online tool ([Sherman et al., 2022]). Drug combination data was treated in COMBENEFIT software ([Di Veroli et al., 2016]). Network was built using Cytoscape with StringDB plugin ([Shannon et al., 2003]; [Szklarczyk et al., 2021]).

[9] = system: HCC1395 TNBC cell line; experiment: MTT survival assay HCC1395; format: cell-based; settings: Homo sapiens, HCC1395; Table S2; read-out: MTT HCC-1395 IC50
Protocol: as §1

[10] = system: MDA-MB-231 TNBC cell line; experiment: MTT survival assay MDA-MB-231; format: cell-based; settings: for IC50: Homo sapiens, MDA-MB-231
Protocol: as §1

[11] = Table S2, read-out: MTT HCC1806 IC50
[12] = Table S2, read-out: MTT MCF10 IC50
[13] = Table S2, read-out: MTT MDA-MB-231 IC50
[14] = Figure 3B heatmap, read-out: IC50, μM (MCF10)
[15] = Figure 3B heatmap, read-out: IC50, μM (MDA-MB-231)

Structure (SMILES): Cc1ccc(CNc2ncnc3ccccc23)cc1 [Compound 9f, N-(4-methyl)quinazolin-4-amine]
Emax [1]: 51.6 ± 7.9%
IC50 [1]: 1.22 ± 0.33 µM
IC50 [2]: 6.08 µM
IC50 [3]: 8.13 ± 3.8 µM
HCC1395 Cytotoxicity Efficacy [4]: 100 ± 0%
IC50 [5, 11]: 23.4 µM
IC50 [6]: 0.83 µM
IC50 [7, 12]: 9.42 µM
effect of co-treatment with docetaxel [8]: exclusively synergistic effects
IC50 [9]: 1.07 µM
IC50 [10, 13]: > 10 µM
MTT MDA-MB-231 Comments ([10]; Table S2): Inactive

Structure (SMILES): COc1cc(CNc2ncnc3sccc23)ccc1F [Compound 4p, N-(4-fluoro-3-methoxybenzyl)thieno[2,3-d]pyrimidin-4-amine]
Emax [1]: 71.4 ± 11.1%
IC50 [1]: 2.59 ± 1.08 µM
GSK HCC1395 Comments ([1]; Table S2): Toxic
IC50 [2]: > 50 µM
IC50 [3]: 4.04 µM
HCC1395 Cytotoxicity Efficacy [4]: 41.8%
IC50 ([5]; Figure 3B heatmap, read-out: IC50, μM (HCC1806)): > 10 µM
IC50 [5, 11]: > 50 µM
IC50 [6]: > 50 µM
IC50 [7, 14]: > 10 µM
IC50 [7, 12]: > 50 µM
effect of co-treatment with docetaxel [8]: exclusively synergistic effects
IC50 [9]: 13.6 µM
IC50 [10, 13]: > 50 µM

Structure (SMILES): COc1cccc(CNc2ncnc3ccccc23)c1 [Compound 9b, N-(3-methoxybenzyl)quinazolin-4-amine]
Emax [1]: 82.6 ± 13.5%
IC50 [2]: 1.1 µM
IC50 [3]: > 50 µM
GSK HCC1395 Renilla Comments [4]: Non-toxic
IC50 [5, 11]: > 50 µM
MTT HCC1806 Comments ([5]; Table S2): Inactive
IC50 [6]: 2.62 µM
IC50 [7, 12]: 40.1 µM
IC50 [9]: 1.05 µM
IC50 [10, 15]: > 10 µM
IC50 [10, 13]: > 50 µM
MTT MDA-MB-231 Comments ([10]; Table S2): Inactive

Now from value to compound, other results behind:

IC50 [1]: 42.9 ± 50.2 µM
Structure (SMILES): Clc1ccccc1CCNc1ncnc2sccc12 [Compound 5k, N-(2-chlorophenethyl)thieno[2,3-d]pyrimidin-4-amine]
Emax [1]: 93.2 ± 10.6%
IC50 [2]: > 50 µM
IC50 [3]: > 50 µM
GSK HCC1395 Renilla Comments [4]: Non-toxic
IC50 [5, 11]: > 50 µM
IC50 [6]: > 50 µM
IC50 [7, 12]: 43.6 µM
IC50 [9]: 4.24 µM
IC50 [10, 15]: > 10 µM
IC50 [10, 13]: > 50 µM

IC50 [1]: 2.64 ± 1.22 µM
Structure (SMILES): c1ccc(CCNc2ncnc3sccc23)cc1 [Compound 5g, N-phenethylthieno[2,3-d]pyrimidin-4-amine]
Emax [1]: 89%
IC50 [2]: > 50 µM
IC50 [3]: > 50 µM
GSK HCC1395 Renilla Comments [4]: Non-toxic
IC50 [5, 11]: > 50 µM
IC50 [6]: > 50 µM
IC50 [7, 14]: > 10 µM
IC50 [7, 12]: > 50 µM
IC50 [9]: 4.59 µM
IC50 [10, 15]: > 10 µM
IC50 [10, 13]: > 50 µM
